Tested on: neuropathic mice
Settings: conditioned 1 h 30 after injection, post- versus pre-conditioning, result in words
Protocol: 14 days after mice are free to explore during 10 minutes, a 2-chamber arena separated by a narrow corridor. A camera placed above the device allows tracking of mice movements. […] 1 H 30 after injection of either fluoxetine alone or combination of fluoxetine and CLP290, mice are restricted to one chamber during 10 minutes. 2 days after mice are put again and free to explore the entire arena. […] As control experiment, the same procedure is performed in neuropathic mice with fluoxetine and CLP290 vehicle.

Question: Which “time spent in the conditioned chamber (CPP)” value does the source give for `CNCCC(Oc1ccc(C(F)(F)F)cc1)c1ccccc1` (stereo not shown) [fluoxetine] here?
Answer: Its value is “not”.

— patent publication US20240277636A1, “COMBINATION COMPRISING AT LEAST ONE SEROTONIN REUPTAKE INHIBITOR AND AT LEAST ONE STIMULATOR OF POTASSIUM-CHLORIDE COTRANSPORTER TYPE 2 AND ITS MEDICAL USE” (Université de Bordeaux, priority 2021, published 2024)
